Test results reported in US20040247607A1, “Use of surfactants to stabilize oocysts” (priority 1999, published 2004).

Tested on: oocysts
Assay: Evaluation of naturally derived surfactants for decreasing and preventing oocyst aggregation
Source text: In one aspect, the present invention provides a method for evaluating the ability of a surfactant to prevent aggregation of oocysts, sporocysts, and/or sporozoites. The method comprises adding a surfactant to a composition that comprises oocysts, sporocysts, sporozoites, or any combination thereof, at a concentration sufficient to prevent aggregation of the oocysts, sporocysts, and/or sporozoites (i.e. a test concentration). The resulting composition is then agitated, for example, by shaking manually or via an automatic shaker. As previously described, agitating the composition exposes the oocysts, sporocysts, and/or sporozoites to air or other gases, and promotes aggregation. After agitation, the composition is evaluated to determine whether any aggregation has occurred. Preferably, evaluation occurs by visually observing the composition for the presence of aggregated oocysts, sporocysts, and/or sporozoites. […]
In another aspect, the present invention provides a method for evaluating the ability of a surfactant to reduce oocyst, sporocyst, and/or sporozoite aggregation. […] Upon addition of the surfactant, the resulting composition is agitated, as previously described, and then evaluated to determine whether the aggregation has been reduced or eliminated entirely by addition of the surfactant. […]

casein
decreasing and preventing aggregation of oocysts: effective

serum albumin
decreasing and preventing aggregation of oocysts: effective
